# Measured values taken from patent US20230087825A1, “SMARCA DEGRADERS AND USES THEREOF” (Kymera Therapeutics, Inc., priority 2019, published 2023).
# Target: T1, SMARCA2 (Homo sapiens, UniProt P51531)
# T1 construct: host or cells: NCI-H1299
# Assay: MSD SMARCA2 degradation in NCI-H1299 cell line
# Assay type: cell-based
# Conditions: NCI-H1299 cells; percentage of SMARCA2 degradation after 24 hours
# Experimental: Example 12. MSD SMARCA2 Degration in NCI-H1299 Cell Line
# Cell Culture: Cells were cultured in exponential growth phase.
# Compound Preparation and Treatment: NCI-H1299 cells were seeded into the 96-well plate at 4.0*10^4 cells per 100 ul per well. Incubate the plate in the incubator overnight. The next day, compounds were diluted to designed stock concentration by TECAN, then perform a 3 fold, 9-point dilution via transferring 15 uL compound into 30 μL DMSO using Apricot. 200 nL diluted compound from compound source plate were transferred into the 96-intermediate plate as designated by using Echo550, followed with 100 ul culture medium to make the 2× compound solution. Cell plate were changed with 80 ul of fresh culture medium and 80 ul of 2× compound solution was added into the well to achieve the final designed concentration. Cell plate was then shaken at 720 rpm for 5 min and incubated for 24 hours in the incubator.
# Sample Preperation: Media was aspirated from the cultures and the plate was washed with PBS twice. […]
# MSD Procedure: The MSD plate was coated with 40 ul cell lysate and incubated at 4° C. overnight. […] MSD plate was washed 3 times with 150 ul 1×TBST per well and 2× MSD reading buffer was added, 150 ul per well, and diluted from 4× with water. MSD instrument was then read.
# Data Analysis: The percentage of relative level of SMARCA2 level was calculated following equation below. […]
# T1 sequence (P51531 whole entry): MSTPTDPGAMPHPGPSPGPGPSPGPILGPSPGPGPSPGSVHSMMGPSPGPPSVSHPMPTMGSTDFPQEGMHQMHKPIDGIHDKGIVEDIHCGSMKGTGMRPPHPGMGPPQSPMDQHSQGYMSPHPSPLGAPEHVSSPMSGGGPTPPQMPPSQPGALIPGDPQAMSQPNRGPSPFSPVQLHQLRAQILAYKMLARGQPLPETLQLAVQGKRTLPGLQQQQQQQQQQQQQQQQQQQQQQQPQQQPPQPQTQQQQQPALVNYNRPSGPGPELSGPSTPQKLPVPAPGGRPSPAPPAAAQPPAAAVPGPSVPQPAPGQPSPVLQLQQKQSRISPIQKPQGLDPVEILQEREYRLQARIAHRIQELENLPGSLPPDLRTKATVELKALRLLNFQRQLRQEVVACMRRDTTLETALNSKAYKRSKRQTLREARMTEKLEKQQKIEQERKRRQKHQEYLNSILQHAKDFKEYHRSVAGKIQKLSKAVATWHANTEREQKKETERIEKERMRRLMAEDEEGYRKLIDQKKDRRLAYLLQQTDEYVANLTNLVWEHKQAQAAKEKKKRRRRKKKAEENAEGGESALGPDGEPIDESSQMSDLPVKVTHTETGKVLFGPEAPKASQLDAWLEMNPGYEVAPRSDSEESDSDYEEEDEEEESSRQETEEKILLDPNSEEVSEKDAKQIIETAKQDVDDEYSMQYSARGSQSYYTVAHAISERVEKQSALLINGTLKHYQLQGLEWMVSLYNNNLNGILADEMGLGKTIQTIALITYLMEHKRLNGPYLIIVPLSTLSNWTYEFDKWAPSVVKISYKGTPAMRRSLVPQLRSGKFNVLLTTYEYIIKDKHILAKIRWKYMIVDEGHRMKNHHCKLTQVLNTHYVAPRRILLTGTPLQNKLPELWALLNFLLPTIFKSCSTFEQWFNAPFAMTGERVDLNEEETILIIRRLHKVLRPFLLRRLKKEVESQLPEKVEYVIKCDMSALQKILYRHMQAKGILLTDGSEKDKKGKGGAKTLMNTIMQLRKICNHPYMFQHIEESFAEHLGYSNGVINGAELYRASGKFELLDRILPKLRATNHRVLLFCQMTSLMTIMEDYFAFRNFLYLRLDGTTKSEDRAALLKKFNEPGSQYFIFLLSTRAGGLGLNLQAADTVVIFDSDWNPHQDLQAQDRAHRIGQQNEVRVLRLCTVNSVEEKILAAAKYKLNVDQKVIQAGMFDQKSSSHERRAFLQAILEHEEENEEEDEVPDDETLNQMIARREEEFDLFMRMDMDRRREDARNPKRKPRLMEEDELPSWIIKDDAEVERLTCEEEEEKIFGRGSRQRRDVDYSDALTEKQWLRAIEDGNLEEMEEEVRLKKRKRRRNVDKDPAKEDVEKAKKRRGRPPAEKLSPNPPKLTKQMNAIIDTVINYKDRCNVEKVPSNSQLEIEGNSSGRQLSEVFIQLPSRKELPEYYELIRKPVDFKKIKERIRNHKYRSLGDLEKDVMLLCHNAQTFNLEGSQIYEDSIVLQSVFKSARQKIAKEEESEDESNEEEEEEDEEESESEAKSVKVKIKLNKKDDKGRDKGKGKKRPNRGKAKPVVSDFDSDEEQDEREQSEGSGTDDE
compound,measurement,value
Nc1nnc(-c2ccccc2O)cc1-c1ccc(CN2CCN(CCCCCc3cccc4c3c3ccccc3n4C3CCC(=O)NC3=O)CC2)cc1 (centres unmarked) [I-7],Dmax,70 to 90%
Nc1nnc(-c2ccccc2O)cc1-c1ccc(CN2CCN(CCCCOCCCc3ccc4c(c3)c3ccccc3n4C3CCC(=O)NC3=O)CC2)cc1 (centres unmarked) [I-10],Dmax,50 to 70%
